The target of the assay is LTB4 -receptor (Homo sapiens, UniProt Q15722). Nature of the assay: receptor binding test. As for the experimental part:
The compounds according to the invention are potent LTB4 -antagonists.In particular the compound of Example 1 is obtained in vivo as a metabolite of an LTB4 -antagonistic compound and in the receptor binding test it has a Ki -value of 1.0 nM.
The activity ratios may be investigated pharmacologically and biochemically using tests such as those described in WO 93/16036, pp. 15 to 17 --the contents of which are referred to herein.

Each structure is given as a SMILES string.

Chain of LTB4 -receptor (Q15722 whole entry): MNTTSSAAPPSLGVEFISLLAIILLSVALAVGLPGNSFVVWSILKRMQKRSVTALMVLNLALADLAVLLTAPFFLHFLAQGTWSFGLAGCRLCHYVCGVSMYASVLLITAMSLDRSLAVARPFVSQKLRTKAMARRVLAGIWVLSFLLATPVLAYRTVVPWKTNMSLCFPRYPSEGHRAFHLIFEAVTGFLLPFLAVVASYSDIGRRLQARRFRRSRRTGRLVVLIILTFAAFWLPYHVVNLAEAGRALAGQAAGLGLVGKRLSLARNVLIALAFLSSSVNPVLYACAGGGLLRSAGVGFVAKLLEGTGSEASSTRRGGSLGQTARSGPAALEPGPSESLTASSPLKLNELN

On to `CC(C)(c1ccc(OCc2cccc(COc3ccc(C(=N)N)cc3)c2)cc1)c1ccc(O[C@@H]2O[C@H](C(=O)O)[C@@H](O)[C@H](O)[C@H]2O)cc1` [Example 1, 4-[[3-[[4-[1-(4-hydroxyphenyl)-1-methylethyl]phenoxy]methyl]phenyl]methoxy]-benzenecarboximidamide-O-gluctironide], for which the Ki (commonly the dissociation constant of the complex between target and ligand, obtained from inhibition or displacement) is 1 nM.
